Our source for the IC50 values is PMC7072352, “Venetoclax, a BCL-2 Inhibitor, Enhances the Efficacy of Chemotherapeutic Agents in Wild-Type ABCG2-Overexpression-Mediated MDR Cancer Cells” (Cancers, 2020).

The term IC50 denotes the concentration needed to halve the response being measured. Low readings indicate greater potency, high ones weaker potency.

The target in the test is T1, ABCG2 (breast cancer resistance protein, BCRP) (Homo sapiens, UniProt Q9UNQ0).
T1 construct: wild-type ABCG2 (R482) in overexpressing cell membranes
T1 sequence (Q9UNQ0 1-655): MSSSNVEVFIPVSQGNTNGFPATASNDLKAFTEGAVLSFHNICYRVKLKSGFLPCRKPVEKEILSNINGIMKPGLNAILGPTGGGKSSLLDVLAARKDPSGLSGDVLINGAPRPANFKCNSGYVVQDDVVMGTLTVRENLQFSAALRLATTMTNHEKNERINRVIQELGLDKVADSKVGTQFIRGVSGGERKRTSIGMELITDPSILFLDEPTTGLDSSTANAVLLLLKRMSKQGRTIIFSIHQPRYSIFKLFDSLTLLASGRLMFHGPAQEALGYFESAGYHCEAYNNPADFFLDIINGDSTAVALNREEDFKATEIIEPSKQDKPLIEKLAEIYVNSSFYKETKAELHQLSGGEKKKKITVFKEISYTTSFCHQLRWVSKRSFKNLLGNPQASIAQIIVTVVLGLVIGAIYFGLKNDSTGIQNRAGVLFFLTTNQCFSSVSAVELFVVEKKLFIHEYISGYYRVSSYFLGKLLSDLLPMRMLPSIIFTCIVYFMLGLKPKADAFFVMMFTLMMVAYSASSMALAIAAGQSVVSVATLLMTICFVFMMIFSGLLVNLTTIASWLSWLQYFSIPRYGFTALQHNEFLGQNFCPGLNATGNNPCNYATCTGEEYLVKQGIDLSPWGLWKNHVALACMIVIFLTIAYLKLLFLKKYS
Put plainly: vanadate-sensitive ATPase assay in ABCG2-overexpressing cell membranes; [3H]-mitoxantrone accumulation and efflux in cells. In kind it is biochemical.

Molecule `CC1(C)CCC(CN2CCN(c3ccc(C(=O)NS(=O)(=O)c4ccc(NCC5CCOCC5)c([N+](=O)[O-])c4)c(Oc4cnc5[nH]ccc5c4)c3)CC2)=C(c2ccc(Cl)cc2)C1` [venetoclax] registered an IC50 of 4.78 µM.
